Broadly, the pKa is the negative logarithm of the acid dissociation constant.

We go through one compound from PMC11881906, “Development of xanthone derivatives as effective broad-spectrum antimicrobials: Disrupting cell wall and inhibiting DNA synthesis” (Science Advances, 2025).

One data set has as its system K. pneumoniae. Nature of the data set: MIC, summary over K. pneumoniae strains. In kind it is cell-based. The settings on record: Klebsiella pneumoniae, two strains; read-out: MICs against K. pneumoniae. The method, then: MIC was determined using the broth microdilution method in accordance with Clinical and Laboratory Standards Institute guidelines. All compounds were dissolved in dimethyl sulfoxide (DMSO; final DMSO concentration of less than 0.5%) and sterile double-distilled water and then diluted with Mueller-Hinton broth (MHB). Each compound’s stock solution was serially twofold diluted, resulting in concentrations ranging from 0.39 to 100 μg/ml, and thereafter added to sterile 96-well plates. All bacterial cell suspensions were adjusted in MHB to attain a starting inoculum of 1 × 10^6 cells/ml. A total of 100 μl volume of the bacterial suspension was then added to each well. Following a 24-hour incubation at 37°C, the optical density at 600 nm (OD600) was confirmed by measuring absorbance at 600 nm with a BioTek microplate reader. […] All measurements were repeated three times with duplicates each time.

The next data set is described as follows: CCK-8 cytotoxicity assay. In kind it is cell-based. Here is the method: Cytotoxicity of the compound tested was assessed by CCK-8 assays as previously described ([71]). […] Following a 24-hour incubation, 10 μl of CCK-8 reagent was added to each well and incubated for 1 hour. The absorbance at 450 nm was measured by a microplate reader. All measurements were repeated three times with duplicates each time.

The subject of the next data set is S. aureus ATCC 29213. As to the kind of experiment: DiSC3(5) membrane depolarization assay. In kind it is cell-based, Staphylococcus aureus. The following applies: 1× to 8× MIC. The method, then: The DiSC3(5) assay was carried out to investigate the cytoplasmic membrane depolarization. Mid-log phase bacteria culture was centrifuged and resuspended in sterile Hepes buffer [5 mM (pH 7.4)] to adjust the concentration of bacterial cells to obtain OD600 of 0.1. The bacterial suspension was then incubated with 2 μM DiSC3(5) for 1 hour without being exposed to the light. The change in fluorescence intensity was monitored by a BioTek multidetector microplate reader with an excitation wavelength of 622 nm and an emission wavelength of 670 nm. […] All measurements were repeated three times with duplicates each time.

The subject of data set [1] is LPS. As to the kind of experiment: Fluorescence-based binding assay. The settings on record: compound 1× MIC; LPS 0 to 2.5 μg/ml. The method, then: Changes in the fluorescence emission spectrum or intensity were assessed for compound XT17 with and without the presence of targeted proteins. The fluorescent properties of compound XT17 (excitation wavelength of 350 nm and emission wavelength of 440 nm) were measured using a fluorescent plate reader upon binding to the targets. […] The changes in the emission from a constant concentration of fluorescent compound were monitored after adding increasing concentrations of LTA or LPS. All measurements were repeated three times with duplicates each time.

Data set [2] concerns LPS. As to the kind of experiment: BODIPY-TR-cadaverine displacement assay. In kind it is binding. The method, then: (§1) The percentage of displacement from LTA-BODIPY/LPS-BODIPY by test compounds was determined according to BODIPY cadaverine displacement assay. […] The mixture was incubated in the dark for 30 min, and then the fluorescence was monitored at an excitation wavelength of 580 nm and an emission wavelength of 620 nm using a BioTek multidetector microplate reader. The percentage of displacement from LTA-BODIPY/LPS-BODIPY was calculated by the following formula: % Displacement = (FS − Fmin)/(Fmax − Fmin) × 100. Where FS is the fluorescence intensity observed at a given test compound concentration, Fmin is the fluorescence intensity of BODIPY with LTA/LPS and DMSO, and Fmax is the fluorescence intensity of BODIPY with only DMSO. All tests were carried out at least twice and with biological replicates.

Another data set relates to LTA. Nature of the data set: BODIPY-TR-cadaverine displacement assay. It counts as binding. Here is the method:
as §1

For data set [3] the following is noted: for the free guanidine group, not the whole compound; cited from earlier work.
Where [4] appears, read: human, HepG2 cells, read-out: Viable cells (%) HepG2 cells.
Where [5] appears, read: mouse, NCTC clone 929 fibroblast cells, read-out: %Viable cells NCTC clone 929 cells.

≈ marks a conversion by molar mass, not a printed value. Where two headings read alike, the source gives them in different places.

`CC(C)=CCOc1cc(OCCCNC(=N)N)cc2oc3cc(OCCCNC(=N)N)ccc3c(=O)c12` [XT17]: in the data set with K. pneumoniae, the MIC was 6.25 to 12.5 µg/mL (≈ 12.2 to 24.5 µM). The values for the viability at 24 h, 3.125 μg/ml in “CCK-8 cytotoxicity assay” (setting [4]) and in “CCK-8 cytotoxicity assay” (setting [5]) were 105% and 90%, respectively. In addition, the viability at 24 h, 6.25 μg/ml stood at 110% in “CCK-8 cytotoxicity assay” (setting [4]) and 87.9% in “CCK-8 cytotoxicity assay” (setting [5]). For the same compound, the viability at 24 h, 12.5 μg/ml came out at 104% in “CCK-8 cytotoxicity assay” (setting [4]) and 87.7% in the data set “CCK-8 cytotoxicity assay” (setting [5]). In addition, the viability at 24 h, 25 μg/ml came to 83.9% in “CCK-8 cytotoxicity assay” (setting [4]) and 78.9 ± 3.46% in “CCK-8 cytotoxicity assay” (setting [5]). Moreover, the viability at 24 h, 50 μg/ml in the data set “CCK-8 cytotoxicity assay” (setting [4]) is 62.2 ± 8.01%; in “CCK-8 cytotoxicity assay” (setting [5]), 51.6 ± 2.46%. Further, the viability at 24 h, 100 μg/ml in “CCK-8 cytotoxicity assay” (setting [4]) was found to be 40.6%; in the data set “CCK-8 cytotoxicity assay” (setting [5]) it was 8.16%. In the data set on S. aureus ATCC 29213, the “DiSC3(5) fluorescence intensity (membrane depolarization)” value is “no changes in fluorescence intensity”. Further, the “fluorescence emission of compound upon binding to LPS” value in the data set with LPS [1] is given as “decreased in a concentration-dependent manner”. Moreover, the “% Displacement from LPS” value is given as 39.22% in the data set on LPS [2] (1× MIC), 52.67% in the data set on LPS [2] (2× MIC), 69.53% in the data set with LPS [2] (4× MIC) and 75.50% in the data set on LPS [2] (8× MIC). Further, the “% Displacement from LTA” value in the data set with LTA (1× MIC) was found to be 2.86%; in the data set with LTA (2× MIC) it was 14.81%; with LTA (4× MIC), 17.88%; in the data set with LTA (8× MIC), 32.95%. The pKa in data set [3] is reported as 12.48.
